One block for each molecule: values may come before it. Activity calls are given as the source filed them.
Columns and labels:
[1] = biological target: T1, Sentrin-specific protease 1 (Homo sapiens, UniProt Q9P0U3); experiment: potency of human SENP1 inhibitors, dose response, biochemical, kinetic FRET (AID 651697); format: functional; settings: read-out: IC50_Mean
[2] = biological target: T1, Sentrin-specific protease 1; experiment: Dose response confirmation of small molecule inhibitors of the catalytic domain of the SUMO protease, SENP1 in a FRET assay.; format: functional; settings: read-out: IC50_Mean
[3] = biological target: T2, Zinc finger protein mex-5 (Caenorhabditis elegans, UniProt Q9XUB2); experiment: MEX-5/TCR-2 RNA interaction inhibitors, dose response, biochemical, C. elegans, fluorescence polarization (AID 1960)
T2 sequence (Q9XUB2 whole entry): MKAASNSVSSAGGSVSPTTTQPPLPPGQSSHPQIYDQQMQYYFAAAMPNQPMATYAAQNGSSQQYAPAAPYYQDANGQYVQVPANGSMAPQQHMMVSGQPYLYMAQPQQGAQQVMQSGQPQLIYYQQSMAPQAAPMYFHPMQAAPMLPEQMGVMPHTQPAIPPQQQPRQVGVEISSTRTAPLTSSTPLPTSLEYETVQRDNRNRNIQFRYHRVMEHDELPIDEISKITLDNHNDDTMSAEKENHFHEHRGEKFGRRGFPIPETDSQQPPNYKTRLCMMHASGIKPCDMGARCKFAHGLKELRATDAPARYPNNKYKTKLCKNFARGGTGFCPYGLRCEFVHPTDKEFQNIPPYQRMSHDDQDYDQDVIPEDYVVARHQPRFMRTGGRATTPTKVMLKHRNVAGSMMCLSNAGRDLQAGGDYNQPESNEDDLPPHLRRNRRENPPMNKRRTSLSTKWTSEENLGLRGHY

[4] = biological target: T3, RNA-binding protein pos-1 (Caenorhabditis elegans, UniProt G5EF15); experiment: inhibitors of POS-1/mex-3 RNA binding, dose response, biochemical, fluorescence polarization (AID 1964);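 note: purified POS-1 fused to maltose binding protein made in E. coli; potency of compounds blocking POS-1 binding to fluorescent RNA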
T3 sequence (G5EF15 whole entry): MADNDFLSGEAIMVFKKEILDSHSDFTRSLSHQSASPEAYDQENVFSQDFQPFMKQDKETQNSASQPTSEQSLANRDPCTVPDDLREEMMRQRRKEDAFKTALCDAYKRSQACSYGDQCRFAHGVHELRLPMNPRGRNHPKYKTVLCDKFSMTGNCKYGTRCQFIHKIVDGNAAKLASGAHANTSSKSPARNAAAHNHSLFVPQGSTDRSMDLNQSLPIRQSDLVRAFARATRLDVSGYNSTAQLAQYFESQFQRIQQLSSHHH

[5] = biological target: T4, DNA repair protein RAD52 homolog (Homo sapiens, UniProt P43351); format: functional, biochemical
T4 sequence (P43351 whole entry): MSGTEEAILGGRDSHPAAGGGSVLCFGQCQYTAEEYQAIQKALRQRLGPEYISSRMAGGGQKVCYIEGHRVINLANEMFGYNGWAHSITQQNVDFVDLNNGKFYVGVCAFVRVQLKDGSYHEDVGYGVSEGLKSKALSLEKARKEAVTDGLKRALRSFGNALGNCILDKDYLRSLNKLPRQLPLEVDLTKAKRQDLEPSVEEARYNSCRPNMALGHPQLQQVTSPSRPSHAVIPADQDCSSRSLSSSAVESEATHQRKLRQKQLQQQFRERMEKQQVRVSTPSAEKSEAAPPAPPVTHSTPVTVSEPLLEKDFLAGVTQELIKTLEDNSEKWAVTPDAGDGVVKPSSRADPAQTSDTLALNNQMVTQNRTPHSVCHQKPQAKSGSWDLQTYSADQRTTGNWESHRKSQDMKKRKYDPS

[6] = MDA-MB-231 cell growth inhibition, dose response, cytotoxicity control for RAD54 inhibitor project, CellTiter-Glo luminescence, cherry-pick (AID 651692); format: functional, cell-based
[7] = biological target: T5, DNA repair and recombination protein RAD54-like (Homo sapiens, UniProt Q92698); experiment: inhibitors of human RAD54 branch migration, confirmation, biochemical, fluorescence, cherry-picked samples, dose series (AID 651657); format: functional
T5 sequence (Q92698 whole entry): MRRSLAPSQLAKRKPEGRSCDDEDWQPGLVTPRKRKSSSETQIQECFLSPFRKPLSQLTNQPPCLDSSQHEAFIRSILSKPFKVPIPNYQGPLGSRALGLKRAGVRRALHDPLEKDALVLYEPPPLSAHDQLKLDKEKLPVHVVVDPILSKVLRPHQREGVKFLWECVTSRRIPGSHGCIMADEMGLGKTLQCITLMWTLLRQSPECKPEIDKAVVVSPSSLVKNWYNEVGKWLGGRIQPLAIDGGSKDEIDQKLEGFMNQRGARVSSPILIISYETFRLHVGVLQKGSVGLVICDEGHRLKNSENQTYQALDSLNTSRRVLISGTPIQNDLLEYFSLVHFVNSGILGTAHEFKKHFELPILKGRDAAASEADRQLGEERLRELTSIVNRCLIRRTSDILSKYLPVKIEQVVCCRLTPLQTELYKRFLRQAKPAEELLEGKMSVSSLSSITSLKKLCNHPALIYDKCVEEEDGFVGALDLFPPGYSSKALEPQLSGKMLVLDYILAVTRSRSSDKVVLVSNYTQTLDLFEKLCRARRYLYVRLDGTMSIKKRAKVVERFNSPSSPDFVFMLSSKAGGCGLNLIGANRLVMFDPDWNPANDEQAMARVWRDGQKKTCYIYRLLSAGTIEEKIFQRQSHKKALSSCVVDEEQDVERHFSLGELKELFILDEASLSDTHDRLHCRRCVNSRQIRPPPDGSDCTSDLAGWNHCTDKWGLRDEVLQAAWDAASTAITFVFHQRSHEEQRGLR

[8] = biological target: Melanin-concentrating hormone receptor 1 (Homo sapiens, UniProt Q99705); experiment: Late-stage fluorescence-based counterscreen for antagonists of the G-protein coupled receptor 7 (GPR7): cell-based dose response assay to identify antagonists of the melanin-concentrating hormone receptor 1 (MCHR1) Set 6.; format: functional
Melanin-concentrating hormone receptor 1, sequence (Q99705 whole entry): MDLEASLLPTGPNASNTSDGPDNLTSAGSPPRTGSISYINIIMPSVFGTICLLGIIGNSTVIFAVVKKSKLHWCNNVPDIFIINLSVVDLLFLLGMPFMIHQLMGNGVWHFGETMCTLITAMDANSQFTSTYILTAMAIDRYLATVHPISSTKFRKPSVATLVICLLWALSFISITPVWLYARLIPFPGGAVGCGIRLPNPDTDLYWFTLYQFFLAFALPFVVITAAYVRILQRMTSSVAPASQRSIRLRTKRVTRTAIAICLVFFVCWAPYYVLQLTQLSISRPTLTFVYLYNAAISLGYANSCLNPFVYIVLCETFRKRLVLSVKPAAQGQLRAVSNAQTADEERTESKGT

[9] = biological target: T6, Neuropeptides B/W receptor type 1 (Homo sapiens, UniProt P48145); experiment: GPR7 antagonist potency, late-stage follow-up, cell-based, fluorescence, dose response, set 6 (AID 588583); format: functional
T6 sequence (P48145 whole entry): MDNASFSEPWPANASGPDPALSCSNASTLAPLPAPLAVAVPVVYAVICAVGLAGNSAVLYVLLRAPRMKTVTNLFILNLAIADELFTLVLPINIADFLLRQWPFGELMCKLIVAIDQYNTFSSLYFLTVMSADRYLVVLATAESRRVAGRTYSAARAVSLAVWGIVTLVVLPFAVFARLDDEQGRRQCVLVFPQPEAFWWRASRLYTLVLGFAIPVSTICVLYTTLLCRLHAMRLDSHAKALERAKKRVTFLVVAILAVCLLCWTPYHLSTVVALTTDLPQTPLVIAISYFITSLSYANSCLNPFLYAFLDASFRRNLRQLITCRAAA

Interleukin-8 [10] = biological target: T7, Interleukin-8 (Homo sapiens, UniProt P10145); experiment: Dose Response confirmation of uHTS small molecule hits for cystic fibrosis induced NFkb Inhibitors in a TNFa-induced IL8 counterscreen.; format: functional; settings: read-out: IC50_Mean
T7 sequence (P10145 whole entry): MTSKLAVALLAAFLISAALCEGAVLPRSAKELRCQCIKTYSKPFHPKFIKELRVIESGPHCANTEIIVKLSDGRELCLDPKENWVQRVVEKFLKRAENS

[11] = C. albicans growth with fluconazole, confirmation, fluorescence, retest (AID 2467); format: functional, cell-based
[12] = NIH-3T3 fibroblast cytotoxicity, dose response, cytotoxicity control, cell-based, fluorescence, Alamar Blue, secondary assay (AID 2327); format: functional;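 note: NIH-3T3 mouse fibroblasts cultured with fluconazole at 8 µg/mL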
Interleukin-8 [13] = biological target: T7, Interleukin-8; experiment: Dose Response confirmation of uHTS small molecule hits for cystic fibrosis induced NFkb Inhibitors in a PAF-induced IL8 counterscreen.; format: functional; settings: read-out: IC50_Mean
[14] = Luminescence-based counterscreen assay for KLF5 inhibitors: dose response cell-based high throughput screening assay to identify cytotoxic compounds using the IEC-6 intestinal epithelial cell line. [Related pubchem assays: 1700 (Primary screen.), 1834 (Confirmation screen.), 1858 (Summary AID.), 1905 (Counterscreen.)]; format: functional
INS1 = experiment: beta cell apoptosis inhibitors, cytokine rescue, dose response, luminescence, retest (AID 449756); format: functional, cell-based; settings: Rattus norvegicus;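 note: cell death triggered by IL-1 beta plus TNF-alpha plus IFN-gamma mixture; protective hits raise ATP signal compared with cytokine alone wells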
[15] = Luminescence Cell-Based Dose Retest to Confirm Inhibitors of Cancer Stem Cells. [Related pubchem assays (depositor defined):AID2717, AID2721]; format: functional; settings: Homo sapiens
[16] = cytotoxicity in NIH3T3 fibroblasts, dose response, cytotoxicity control for HSP40 inhibitor project, cell-based, CellTiter-Glo luminescence, cherry-pick, set 2 (AID 624265); format: functional
[17] = biological target: Potassium voltage-gated channel subfamily KQT member 2 (Rattus norvegicus, UniProt O88943); experiment: KCNQ2 potassium channel inhibitors, dose response, cell-based, automated electrophysiology, set II, rat KCNQ2 (AID 588637); format: functional
Potassium voltage-gated channel subfamily KQT member 2, sequence (O88943 whole entry): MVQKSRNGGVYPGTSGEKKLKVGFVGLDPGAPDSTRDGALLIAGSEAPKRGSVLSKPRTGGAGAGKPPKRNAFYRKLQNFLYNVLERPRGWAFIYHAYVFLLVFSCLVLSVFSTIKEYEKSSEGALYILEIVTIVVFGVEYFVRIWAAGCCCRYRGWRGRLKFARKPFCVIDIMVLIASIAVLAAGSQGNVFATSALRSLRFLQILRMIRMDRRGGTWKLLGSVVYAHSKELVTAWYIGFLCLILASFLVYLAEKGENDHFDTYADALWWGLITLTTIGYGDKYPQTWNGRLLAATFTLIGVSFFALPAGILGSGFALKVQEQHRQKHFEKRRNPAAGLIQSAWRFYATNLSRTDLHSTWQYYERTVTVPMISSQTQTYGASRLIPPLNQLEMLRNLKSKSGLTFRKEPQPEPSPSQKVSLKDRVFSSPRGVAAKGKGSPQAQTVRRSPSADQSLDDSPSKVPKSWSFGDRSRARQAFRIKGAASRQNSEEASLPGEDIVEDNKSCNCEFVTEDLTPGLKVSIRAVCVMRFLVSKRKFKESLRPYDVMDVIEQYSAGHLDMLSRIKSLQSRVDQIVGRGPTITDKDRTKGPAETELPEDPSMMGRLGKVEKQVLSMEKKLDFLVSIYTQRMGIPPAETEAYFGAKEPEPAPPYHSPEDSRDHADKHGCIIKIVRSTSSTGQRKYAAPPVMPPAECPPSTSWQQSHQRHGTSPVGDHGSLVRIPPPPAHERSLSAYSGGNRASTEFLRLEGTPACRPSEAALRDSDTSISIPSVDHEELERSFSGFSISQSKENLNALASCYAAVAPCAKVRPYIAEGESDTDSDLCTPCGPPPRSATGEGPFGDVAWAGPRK

Leucine aminopeptidase = biological target: T8, Leucine aminopeptidase (Plasmodium falciparum 3D7, UniProt Q8IL11); experiment: P. falciparum M17LAP inhibitors, primary screen, biochemical, fluorogenic H-Leu-NHMec substrate, 1536-well (AID 1619); format: functional
T8 sequence (Q8IL11 whole entry): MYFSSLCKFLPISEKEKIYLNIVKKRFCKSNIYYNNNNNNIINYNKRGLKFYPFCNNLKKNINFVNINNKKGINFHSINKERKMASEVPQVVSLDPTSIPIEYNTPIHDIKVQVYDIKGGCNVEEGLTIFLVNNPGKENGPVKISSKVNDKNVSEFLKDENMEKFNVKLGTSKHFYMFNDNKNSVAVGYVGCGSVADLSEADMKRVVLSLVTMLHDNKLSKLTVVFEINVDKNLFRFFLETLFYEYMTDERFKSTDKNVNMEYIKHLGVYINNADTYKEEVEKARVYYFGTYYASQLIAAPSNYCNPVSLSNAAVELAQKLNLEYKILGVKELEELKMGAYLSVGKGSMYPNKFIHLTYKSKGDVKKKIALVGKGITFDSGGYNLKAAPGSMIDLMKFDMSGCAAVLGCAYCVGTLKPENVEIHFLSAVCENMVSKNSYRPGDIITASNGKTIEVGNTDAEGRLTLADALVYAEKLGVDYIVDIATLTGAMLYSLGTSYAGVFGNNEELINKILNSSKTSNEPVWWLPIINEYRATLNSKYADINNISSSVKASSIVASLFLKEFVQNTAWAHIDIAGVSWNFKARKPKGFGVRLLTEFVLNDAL

Melanocortin receptor 4 = Melanocortin receptor 4 (Homo sapiens, UniProt P32245); format: functional, cell-based;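 note: Cell-based assay with luminescence read-out, confirmatory dose-response testing for agonist activity of biased ligands at MC4R; human U2OS cells with tagged receptor and beta-arrestin; potency of agonists that increase receptor coupling to beta-arrestin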
Melanocortin receptor 4, sequence (P32245 whole entry): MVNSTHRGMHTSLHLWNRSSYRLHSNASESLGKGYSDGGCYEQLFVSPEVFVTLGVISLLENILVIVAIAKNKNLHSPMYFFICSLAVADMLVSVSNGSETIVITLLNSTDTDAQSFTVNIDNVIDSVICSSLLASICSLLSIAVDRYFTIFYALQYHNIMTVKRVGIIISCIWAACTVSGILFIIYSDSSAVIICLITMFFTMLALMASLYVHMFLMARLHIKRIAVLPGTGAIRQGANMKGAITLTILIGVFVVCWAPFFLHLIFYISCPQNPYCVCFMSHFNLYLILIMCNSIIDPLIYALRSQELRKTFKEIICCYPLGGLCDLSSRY

[18] = control 3'UTR Renilla luciferase suppression, dose response, counter-screen for Shn3 inhibitor project, cell-based, Clone20-Shn3RL, cherry-picked (AID 624133); format: functional
[19] = Fluorescence-based cell-based high throughput dose response assay for inhibitors of the interaction of nucleotide-binding oligomerization domain containing 2 (NOD2) and the receptor-interacting serine-threonine kinase 2 (RIPK2).; format: functional; settings: Homo sapiens
[20] = Shn3 3'UTR reporter inhibitors, dose response, cell-based, Clone20 osteoblasts, firefly luciferase, cherry-picked (AID 624132); format: functional;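 note: firefly luciferase luminescence from reporter carrying the Shn3 3'UTR in osteoblasts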
Paired box protein Pax-8 = Paired box protein Pax-8 (Homo sapiens, UniProt Q06710); experiment: inhibitors of PAX8-driven TPO luciferase reporter, dose response, RMG-I cells, cherry-pick (AID 687027); format: functional, cell-based;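 note: luciferase reporter driven by Pax8 target thyroperoxidase promoter measured by SteadyGlo luminescence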
Paired box protein Pax-8, sequence (Q06710 whole entry): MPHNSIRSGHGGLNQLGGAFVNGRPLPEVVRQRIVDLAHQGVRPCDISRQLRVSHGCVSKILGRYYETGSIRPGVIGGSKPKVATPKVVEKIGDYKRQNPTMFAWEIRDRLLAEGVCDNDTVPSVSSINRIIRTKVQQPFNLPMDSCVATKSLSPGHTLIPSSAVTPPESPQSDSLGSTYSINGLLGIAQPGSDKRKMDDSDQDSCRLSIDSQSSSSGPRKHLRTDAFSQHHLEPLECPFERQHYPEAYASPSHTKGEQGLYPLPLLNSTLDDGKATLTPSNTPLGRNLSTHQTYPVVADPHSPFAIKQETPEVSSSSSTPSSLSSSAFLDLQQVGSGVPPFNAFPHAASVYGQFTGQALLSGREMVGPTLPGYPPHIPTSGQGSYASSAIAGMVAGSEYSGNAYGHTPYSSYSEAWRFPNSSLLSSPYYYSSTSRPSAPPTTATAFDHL

[21] = HepG2 cell cytotoxicity, dose response, cytotoxicity control for Shn3 inhibitor project, CellTiter-Glo, cherry-picked (AID 624134); format: functional, cell-based

T1 sequence (Q9P0U3 whole entry, the tested form may be a part): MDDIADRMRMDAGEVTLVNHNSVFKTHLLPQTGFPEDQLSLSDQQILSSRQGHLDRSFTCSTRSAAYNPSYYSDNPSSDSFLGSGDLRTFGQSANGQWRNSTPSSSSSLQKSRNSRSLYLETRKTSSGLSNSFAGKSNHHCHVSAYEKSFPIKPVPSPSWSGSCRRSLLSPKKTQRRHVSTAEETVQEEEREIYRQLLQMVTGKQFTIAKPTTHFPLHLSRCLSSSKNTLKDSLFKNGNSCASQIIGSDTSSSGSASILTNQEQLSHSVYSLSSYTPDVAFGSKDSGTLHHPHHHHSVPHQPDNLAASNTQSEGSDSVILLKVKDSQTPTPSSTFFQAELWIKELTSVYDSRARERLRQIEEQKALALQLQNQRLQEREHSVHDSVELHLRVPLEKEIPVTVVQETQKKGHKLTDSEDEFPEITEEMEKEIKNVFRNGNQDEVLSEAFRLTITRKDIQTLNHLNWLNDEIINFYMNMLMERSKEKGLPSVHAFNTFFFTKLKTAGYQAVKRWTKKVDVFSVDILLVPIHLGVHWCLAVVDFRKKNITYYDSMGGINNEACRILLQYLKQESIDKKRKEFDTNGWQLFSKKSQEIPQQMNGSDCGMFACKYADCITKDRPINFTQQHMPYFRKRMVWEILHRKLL

IC50 [1]: 38.6 µM (inactive) | IC50 [2]: 20.9 µM (inactive) | EC50 [3]: > 300 µM (inconclusive) | EC50 [4]: > 300 µM (inconclusive)
SMILES: COc1ccc2c(c1)c1nc3ccccc3nc1n2CCn1c(=O)oc2ccccc21

SMILES: CC(=O)Nc1cc(-c2cccc(C(=O)NCCN(C)C)c2)cn2c(-c3ccc(C(C)=O)cc3)cnc12
AC50 [5]: 2.12 µM (active) | AC50 [6]: 31.8 µM (active) | AC50 [7]: 16.1 µM (active)

IC50 [8]: > 20 µM (inactive) | IC50 [9]: > 20 µM (inactive)
SMILES: COc1ccc(Oc2c(Cl)cnn(Cc3cc(-c4ccccc4)n(-c4ccccc4)n3)c2=O)cc1

SMILES: O=C(Oc1cc2oc(=O)cc(-c3ccccc3)c2cc1Cl)C1CCCCC1
IC50 (Interleukin-8 [10]): > 79 µM (inactive) | EC50 [11]: 2.32 µM (active) | EC50 [12]: > 150 µM (inactive) | IC50 (Interleukin-8 [13]): 9.8 µM (active)

SMILES: Cc1cc(-c2ccccc2)n(-c2cc(N/N=C/c3ccccc3O)ncn2)n1
IC50 [14]: 9.65 µM (active) | AC50 (INS1): 4.06 µM (active) | AC50 [15]: 0.703 µM (active) | AbsAC35_uM [16]: 52.65 µM

IC50 [17]: 0.634 µM (active)
SMILES: COc1cc(-c2cc(C(=O)N(C)Cc3ccccc3)c3ccccc3n2)cc(OC)c1OC

IC50 (Leucine aminopeptidase): 8.47 µM (active) | EC50 (Melanocortin receptor 4): > 89.2 µM (inactive)
SMILES: CC(C)c1ccc(NC(=O)CSc2ncccc2C(=O)Oc2cccc([N+](=O)[O-])c2)cc1

SMILES: C=C1C(=O)[C@]23C[C@H]1CC[C@H]2[C@]1(C)[C@@H](OC(C)=O)CC[C@@](C)(C(=O)OC)[C@H]1C[C@@H]3OC(C)=O
AC50 [18]: 5.01 µM (active) | IC50 [19]: 3.1 µM (active) | AC50 [20]: 5.99 µM (active) | AC50 (Paired box protein Pax-8): 3.62 µM (active) | AC50 [21]: 13.6 µM (active)

IC50 [8]: 3.99 µM (active) | IC50 [9]: 3.99 µM (active)
SMILES: Cc1c(C(C#N)c2ccccc2)cnn(Cc2cccc3ccccc23)c1=O (configuration not stated)

— ChEMBL document CHEMBL1201862, “PubChem BioAssay data set” (2004)
